# Results from US9156872B2, “2′-azido substituted nucleoside derivatives and methods of use thereof for the treatment of viral diseases” (priority 2011, dated 2015).
# pEC50: −log10 of the molar value.
# System: HCV replicon cells
# Experiment: Cell-based HCV replicon assay (replicon RNA by Taqman real time PCR)
# Settings: HCV replicon 1b, cells harvested on day 3; read-out: 1b EC50
row,Structure (SMILES),pEC50
1,"C[C@@]1(N=[N+]=[N-])[C@@H]2OP(=O)(OC3CCCC3)OC[C@H]2O[C@H]1n1ccc(=O)[nH]c1=O (single isomer, unassigned) [Compound 561]",5.51
2,C[C@@]1(N=[N+]=[N-])[C@@H]2OP(=O)(OC3CCC3)OC[C@H]2O[C@H]1n1ccc(=O)[nH]c1=O (some centres unmarked) [Compound 84],4.29

# Same assay, conditions: Hepatitis C virus, 72 h, HCV replicon 1b, cells harvested on day 3; read-out: 1b EC50
row,Structure (SMILES),pEC50
1,CCCOP1(=O)OC[C@H]2O[C@@H](n3ccc(N)nc3=O)[C@](C)(N=[N+]=[N-])[C@@H]2O1 (some centres unmarked) [Compound 33],< 4.00
2,C[C@@]1(N=[N+]=[N-])[C@H](O)[C@@H](CO)O[C@H]1n1cnc2c(NC3CC3)nc(N)nc21 [Compound 138],< 4.00
3,COc1nc(N)nc2c1ncn2[C@@H]1O[C@@H]2COP(=O)(OC3CCCC3)O[C@H]2[C@@]1(C)N=[N+]=[N-] (some centres unmarked) [Compound 105],4.77
4,CC(=O)Nc1ccn([C@@H]2O[C@H](CO)[C@@H](O)[C@@]2(C)N=[N+]=[N-])c(=O)n1 [Compound 2],4.12
5,CCOc1nc(N)nc2c1ncn2[C@@H]1O[C@@H]2COP(=O)(OC3CCCC3)O[C@H]2[C@@]1(C)N=[N+]=[N-] (some centres unmarked) [Compound 73],6.15

# Same assay, conditions: Hepatitis C virus, 72 h, read-out: 1b EC50
row,Structure (SMILES),pEC50
1,CCOC(=O)c1ccccc1OP(=O)(N[C@@H](C)C(=O)OC)OC[C@H]1O[C@@H](n2cnc3c(OC)nc(N)nc32)[C@](C)(N=[N+]=[N-])[C@@H]1O (some centres unmarked) [Compound 224],5.48
2,CCOC(=O)c1cccc(OP(=O)(N[C@@H](C)C(=O)OC)OC[C@H]2O[C@@H](n3cnc4c(OC)nc(N)nc43)[C@](C)(N=[N+]=[N-])[C@@H]2O)c1 (some centres unmarked) [Compound 221],6.10
3,Cc1ccc(C(C)C)cc1OP(=O)(N[C@@H](C)C(=O)OC(C)C)OC[C@H]1O[C@@H](n2ccc(=O)[nH]c2=O)[C@](C)(N=[N+]=[N-])[C@@H]1O (some centres unmarked) [Compound 177],4.92
4,"COC(=O)[C@H](C)NP(=O)(OC[C@H]1O[C@@H](n2cnc3c(OC)nc(N)nc32)[C@](C)(N=[N+]=[N-])C1O)Oc1cccc2ccccc12 (single isomer, unassigned) [Compound 254]",6.00
5,COc1nc(N)nc2c1ncn2[C@@H]1O[C@H](COP(=O)(N[C@@H](C)C(=O)OCC(C)(C)C)Oc2ccccc2)[C@@H](O)[C@@]1(C)N=[N+]=[N-] (some centres unmarked) [Compound 55],5.96
6,C[C@H](NP(=O)(OC[C@H]1O[C@@H](n2ccc(N)nc2=O)[C@](C)(N=[N+]=[N-])[C@@H]1O)Oc1ccc(F)cc1)C(=O)OC1CCCCC1 (some centres unmarked) [Compound 197],6.40
7,CCOc1nc(N)nc2c1ncn2[C@@H]1O[C@H](COP(=O)(N[C@@H](C)C(=O)OC(C)C)Oc2ccc(F)cc2)[C@@H](O)[C@@]1(C)N=[N+]=[N-] (some centres unmarked) [Compound 347],6.15
8,"COC(=O)[C@H](C)NP(=O)(OC[C@H]1O[C@@H](n2cnc3c(OC)nc(N)nc32)[C@](C)(N=[N+]=[N-])[C@@H]1O)Oc1ccc(Cl)cc1 (single isomer, unassigned) [Compound 258]",6.10
9,C[C@H](NP(=O)(OC[C@H]1O[C@@H](n2ccc(N)nc2=O)[C@](C)(N=[N+]=[N-])[C@@H]1O)Oc1ccccc1)C(=O)OCC(C)(C)C (some centres unmarked) [Compound 14],4.49
10,"CCCOC(=O)[C@H](C)NP(=O)(OC[C@H]1O[C@@H](n2cnc3c(OC)nc(N)nc32)[C@](C)(N=[N+]=[N-])C1O)Oc1ccccc1 (single isomer, unassigned) [Compound 287]",6.05
11,CCCCOC(=O)[C@H](C)NP(=O)(OC[C@H]1O[C@@H](n2cnc3c(OC)nc(N)nc32)[C@](C)(N=[N+]=[N-])[C@@H]1O)Oc1cccc2ccccc12 (some centres unmarked) [Compound 52],5.92
12,"C[C@H](NP(=O)(OC[C@H]1O[C@@H](n2ccc(N)nc2=O)[C@](C)(N=[N+]=[N-])[C@@H]1O)Oc1ccccc1)C(=O)OC1CCCCC1 (single isomer, unassigned) [Compound 337]",4.57
13,"COc1nc(N)nc2c1ncn2[C@@H]1O[C@H](COP(=O)(N[C@@H](C)C(=O)OC(C)C)Oc2ccc(Cl)cc2)[C@@H](O)[C@@]1(C)N=[N+]=[N-] (single isomer, unassigned) [Compound 293]",5.24
14,COC(=O)[C@H](C)NP(=O)(OC[C@H]1O[C@@H](n2ccc(=O)[nH]c2=O)[C@](C)(N=[N+]=[N-])[C@@H]1O)Oc1cccc2ccccc12 (some centres unmarked) [Compound 41],8.52
15,"CCOC(=O)[C@H](C)NP(=O)(OC[C@H]1O[C@@H](n2cnc3c(OCC)nc(N)nc32)[C@](C)(N=[N+]=[N-])[C@@H]1O)Oc1ccc(Cl)cc1 (single isomer, unassigned) [Compound 352]",5.96
16,COC(=O)[C@H](C)NP(=O)(OC[C@H]1O[C@@H](n2cnc3c(OC)nc(N)nc32)[C@](C)(N=[N+]=[N-])[C@@H]1O)Oc1ccccc1Cl (some centres unmarked) [Compound 77],6.22
17,C[C@H](NP(=O)(OC[C@H]1O[C@@H](n2ccc(=O)[nH]c2=O)[C@](C)(N=[N+]=[N-])[C@@H]1O)Oc1cccc2ccccc12)C(=O)OCc1ccccc1 (some centres unmarked) [Compound 230],4.85
18,CCOc1nc(N)nc2c1ncn2[C@@H]1O[C@H](COP(=O)(N[C@@H](C)C(=O)OCc2ccccc2)Oc2ccccc2)[C@@H](O)[C@@]1(C)N=[N+]=[N-] (some centres unmarked) [Compound 69],5.66
19,C[C@H](NP(=O)(OC[C@H]1O[C@@H](n2ccc(=O)[nH]c2=O)[C@](C)(N=[N+]=[N-])[C@@H]1O)Oc1ccccc1)C(=O)OC1CCCCC1 (some centres unmarked) [Compound 144],6.15
20,COC(=O)c1ccccc1OP(=O)(N[C@@H](C)C(=O)OC)OC[C@H]1O[C@@H](n2cnc3c(OC)nc(N)nc32)[C@](C)(N=[N+]=[N-])[C@@H]1O (some centres unmarked) [Compound 223],5.06
21,COc1nc(N)nc2c1ncn2[C@@H]1O[C@H](COP(=O)(N[C@@H](C)C(=O)OCc2ccccc2)Oc2ccccc2)[C@@H](O)[C@@]1(C)N=[N+]=[N-] (some centres unmarked) [Compound 246],6.22
22,CCOC(=O)[C@H](C)NP(=O)(OC[C@H]1O[C@@H](n2ccc(N)nc2=O)[C@](C)(N=[N+]=[N-])[C@@H]1O)Oc1ccccc1 (some centres unmarked) [Compound 13],5.19

# Same assay, conditions: read-out: 1b EC50
row,Structure (SMILES),pEC50
1,"CCOc1nc(N)nc2c1ncn2[C@@H]1O[C@H](COP(=O)(N[C@@H](C)C(=O)OC(C)C)Oc2ccc(F)cc2)[C@@H](O)[C@@]1(C)N=[N+]=[N-] (single isomer, unassigned) [Compound 365]",5.96
2,"CCOc1nc(N)nc2c1ncn2[C@@H]1O[C@H](COP(=O)(N[C@@H](C)C(=O)OC)Oc2ccccc2Cl)[C@@H](O)[C@@]1(C)N=[N+]=[N-] (single isomer, unassigned) [Compound 310]",6.03
3,"C[C@H](NP(=O)(OC[C@H]1O[C@@H](n2ccc(N)nc2=O)[C@](C)(N=[N+]=[N-])[C@@H]1O)Oc1ccc(Cl)cc1)C(=O)OC1CCCCC1 (single isomer, unassigned) [Compound 340]",4.70
4,"COC(=O)[C@H](C)NP(=O)(OC[C@H]1O[C@@H](n2cnc3c(OC)nc(N)nc32)[C@](C)(N=[N+]=[N-])[C@@H]1O)Oc1ccc(F)cc1 (single isomer, unassigned) [Compound 267]",6.15
5,CCOc1nc(N)nc2c1ncn2[C@@H]1O[C@H](COP(=O)(N[C@@H](C)C(=O)OCC(C)C)Oc2ccccc2)[C@@H](O)[C@@]1(C)N=[N+]=[N-] (some centres unmarked) [Compound 60],5.70
6,CCOC(=O)[C@H](C)NP(=O)(OC[C@H]1O[C@@H](n2cnc3c(OCC)nc(N)nc32)[C@](C)(N=[N+]=[N-])[C@@H]1O)Oc1ccccc1 (some centres unmarked) [Compound 558],6.00
7,C[C@H](NP(=O)(OC[C@H]1O[C@@H](n2ccc(N)nc2=O)[C@](C)(N=[N+]=[N-])[C@@H]1O)Oc1ccccc1)C(=O)OC1CCCC1 (some centres unmarked) [Compound 336],4.82
8,"COc1nc(N)nc2c1ncn2[C@@H]1O[C@H](COP(=O)(N[C@@H](C)C(=O)OC(C)C)Oc2ccc(Cl)cc2)[C@@H](O)[C@@]1(C)N=[N+]=[N-] (single isomer, unassigned) [Compound 294]",5.47
9,"C[C@H](NP(=O)(OC[C@H]1O[C@@H](n2ccc(N)nc2=O)[C@](C)(N=[N+]=[N-])[C@@H]1O)Oc1ccccc1)C(=O)OC1CCCCC1 (single isomer, unassigned) [Compound 338]",4.59
10,"COC(=O)c1ccccc1OP(=O)(N[C@@H](C)C(=O)OC)OC[C@H]1O[C@@H](n2ccc(=O)[nH]c2=O)[C@](C)(N=[N+]=[N-])[C@@H]1O (single isomer, unassigned) [Compound 215]",5.51
11,"COC(=O)[C@H](C)NP(=O)(OC[C@H]1O[C@@H](n2ccc(N)nc2=O)[C@](C)(N=[N+]=[N-])[C@@H]1O)Oc1ccc(F)cc1 (single isomer, unassigned) [Compound 188]",5.25
12,"COC(=O)c1ccccc1OP(=O)(N[C@@H](C)C(=O)OC)OC[C@H]1O[C@@H](n2ccc(=O)[nH]c2=O)[C@](C)(N=[N+]=[N-])[C@@H]1O (single isomer, unassigned) [Compound 227]",5.51
13,"CCOc1nc(N)nc2c1ncn2[C@@H]1O[C@H](COP(=O)(N[C@@H](C)C(=O)OC(C)C)Oc2ccccc2Cl)[C@@H](O)[C@@]1(C)N=[N+]=[N-] (single isomer, unassigned) [Compound 316]",4.55
14,"COc1nc(N)nc2c1ncn2[C@@H]1O[C@H](COP(=O)(N[C@@H](C)C(=O)OC2CCCCC2)Oc2ccc(Cl)cc2)[C@@H](O)[C@@]1(C)N=[N+]=[N-] (single isomer, unassigned) [Compound 273]",5.55
15,"CC(C)OC(=O)[C@H](C)NP(=O)(OC[C@H]1O[C@@H](n2ccc(N)nc2=O)[C@](C)(N=[N+]=[N-])[C@@H]1O)Oc1ccc2c(c1)OCO2 (single isomer, unassigned) [Compound 335]",< 4.00
16,"CCOC(=O)[C@H](C)NP(=O)(OC[C@H]1O[C@@H](n2cnc3c(OCC)nc(N)nc32)[C@](C)(N=[N+]=[N-])[C@@H]1O)Oc1ccc(Cl)cc1 (single isomer, unassigned) [Compound 353]",6.05
17,"CC(C)OC(=O)[C@H](C)NP(=O)(OC[C@H]1O[C@@H](n2ccc(N)nc2=O)[C@](C)(N=[N+]=[N-])[C@@H]1O)Oc1ccccc1Cl (single isomer, unassigned) [Compound 203]",4.70
18,"COc1nc(N)nc2c1ncn2[C@@H]1O[C@H](COP(=O)(N[C@@H](C)C(=O)OC(C)C)Oc2ccccc2Cl)[C@@H](O)[C@@]1(C)N=[N+]=[N-] (single isomer, unassigned) [Compound 281]",4.92
